Peptide text beside a SMILES is read from it.
Experiments:
[1] = target: T1, hGIIA/vimentin interaction (Homo sapiens, UniProt P08670); assay: Enzyme immunoassay of hGIIA binding to vimentin coil 2; details: 0.1-100 µM
T1 construct: Purified vimentin fragments (full length or coil 2) were seeded to a 96-well microplate at 15 μg/mL; hGIIA purified in house from conditioned medium of CHO cell line 2B1
Experimental: Prior to assay, hGIIA antibody 4A1 was conjugated to alkaline phosphatase (4A1-AP), produced using the lightning-link conjugation kit (ab102850, Abcam) as per the manufacturer’s instructions.
Purified vimentin fragments (full length or coil 2) were seeded to a 96-well microplate at 15 μg/mL with a 100 μL/well volume. After an overnight incubation at 4 °C, the plate was emptied. Each well was then blocked overnight at 4 °C with 200 μL of 1% BSA in PBS. The plate was emptied and washed with PBST (PBS + 0.05% Tween20). hGIIA solution of 100 ng/mL in PBS with 0.1% BSA was prepared with and without inhibitors c2, Withaferin A and LY311727 in DMSO with concentrations 0.1-100 µM. hGIIA working solution with 0.4% DMSO served as a positive control and PBS with 0.1% BSA served as a negative control. A 100 μL volume of each prepared hGIIA-inhibitor mixture was added to wells in triplicate and incubated at 37 °C for two hours. The plate was washed twice with PBST, then incubated with the 4A1-AP conjugate at 1 μg/mL 0.1% BSA in PBS and incubated for one hour at 37 °C. Plates were then emptied and washed three times with PBST, followed by washing twice with carbonate buffer (8 mM Na2CO3, 36 mM NaHCO3, 2 mM MgCl2, pH 9.8), before incubation with AP substrate p-nitro-phenyl phosphate (PNPP) powder at 1 mg/mL concentration in carbonate buffer. The plate was incubated at 37 °C for 60 mins then absorbance was read at 405 nm by a Spectramax M2 plate reader. All washes were a 200 µL/well volume.

[2] = Pharmacokinetics of tritiated cF and c2 in BALB/c mice; type: in vivo
Experimental: All animal studies were performed according to the guidelines for the ethical use of animals published by the National Health and Medical Research Council of Australia. Mouse pharmacokinetic studies were conducted with approval from the Garvan Institute Animal Ethics Committee (approval #02/21). cF and c2 were radioactively labelled with tritium by catalytic saturation of peptide analogues containing dehydroleucine (Sibtech Inc.), yielding high specific activity (50–60 Ci/mmol) peptides. Their identity was confirmed by three separate analytical methods prior to delivery. Mice (BALB/c, n = 4 per timepoint) were administered a single dose of peptide by the routes and times indicated. Animals were then exsanguinated by cardiac puncture under halothane anaesthesia followed by cervical dislocation. Tissues and plasma were stored at −80 °C prior to analysis. For plasma, a known volume of plasma was added to liquid scintillant (Ultima Gold, Perkin Elmer). For tissues, a known amount of tissue (50–100 mg) was incubated in NaOH (1 mL, 1 M) overnight at room temperature. The solutions were then bleached with disodium EDTA (100 µl, 0.1%) and hydrogen peroxide (300 µl, 30%) and incubated at 50 °C for one hour. The peptide content of plasma and tissues was determined by liquid scintillation counting. The stability of the peptides following administration to animals was evaluated by thin-layer chromatography of tissue-extracted peptide relative to peptide prior to injection (Fig. S2c).

[3] = Toxicity and serum enzyme levels in PCa xenograft model mice; type: in vivo
Experimental: Fig. 1 Derived from the structure of hGIIA, cF and c2 are orally absorbed, cell permeable and non-toxic. a Structure of hGIIA showing disulphide bonds (yellow) and the location of the peptide sequence ^70FLSYK^74 (cyan), which was cyclised to produce pentapeptide cF, then modified to produce c2. b Plasma concentrations of tritiated cF (red) and c2 (blue) following subcutaneous (sc) administration (circles) or oral (po) administration (squares) at 5 mg/kg to BALB/c mice (mean ± SE, n = 4 per time point). Tissue concentrations of c cF and d c2 following sc administration determined in the liver (blue) and kidney (brown) (mean ± SE). Dashed lines indicate estimated background levels of tritium in tissues due to tissue blood content (10% of peak plasma concentration). e–i Following po administration of c2 at 100 mg/kg to male rats (n = 5 per group), levels of c2 were measured in e plasma, f kidney, g faeces, h urine and i liver at timepoints indicated via LCMS/MS (mean ± SE). j Serum enzyme levels of markers of kidney function (creatinine), liver damage (AST and ALT) and heart damage (CK) in PCa xenograft model mice in response to treatment with vehicle (po, 3 x weekly for 6.1 ± 1.6 weeks), cF (10 mg/kg, po, 3 x weekly for 5.4 ± 0.9 weeks) or c2 (10 mg/kg, po, 3 x weekly for 4.8 ± 0.8 weeks) (n = 4, mean ± SE). Data were obtained by the South Eastern Area Laboratory Services Pathology Laboratory at Prince of Wales Hospital, Randwick, Australia. k PCa cell lines LNCaP, PC-3, and DU145 cells incubated with 100 µM c2 (green) for 24 hours with DAPI (blue), scale bar 10 µm (representative cells of n = 3 biological replicates, 5 cells per replicate).
A key failing of previous enzymatic inhibitors of hGIIA was toxicity, resulting in increased incidence of myocardial infarction in a phase III clinical trial. Thus, the toxicity profile of novel hGIIA inhibitors is critically important in evaluating new inhibitors. […] Extensive histopathology was performed on all animals in the control and high dose groups sacrificed on day 29, with no difference observed between the treated groups and the vehicle control group by any measure. […] In light of the toxicity associated with the myocardial infarction study, data from this c2 toxicity study relevant to heart toxicity are shown in Table 1. Heart wet weight was not affected by either low or high dose relative to vehicle, indicating the compound has no significant pro-hypertrophy effect at these doses. The lack of effect of c2 on gross necropsy or histopathology scores also supports the preclinical safety of the compound in the heart. Importantly, c2 has no effect on serum potassium levels or the Na/K ratio, since hypokalemia (low potassium) is highly arrythmogenic. […] It is of interest also that serum alanine transaminase is unaffected by c2 at the doses tested, since this marker was raised three-fold over the normal range in 6.3-fold more patients on varespladib than placebo in the VISTA acute coronary syndrome trial of this sPLA2 inhibitor [13].

[4] = test system: LNCaP-luc xenograft tumours; assay: Androgen-sensitive xenograft model; type: in vivo, BALB/c nu/nu mice; details: cF 2 mg/kg po daily
Experimental: BALB/c nu/nu mice (which express murine hGIIA) (n = 13 per group) were injected subcutaneously with 1 × 10^6 luciferase-tagged LNCaP cells (LNCaP-luc) in RPMI 5% FBS/Matrigel (1:1). Subcutaneous tumours (> 65.5 mm^3), in mice randomised to […], were treated by gavage with either vehicle (saline, 1% dimethylformamide (DMF), po, daily) cF (2 mg/kg po, daily) or c2 (0.1 mg/kg, thrice weekly). Mouse weight and tumour diameter, ((d1) and at 90 degrees to d1 (d2) measured with calipers) were recorded twice weekly. Diameter measurements were used to calculate tumour volume; Vol. = π/6 (d1.d2)^3/2, with treatments blinded to experimentalists. Animals were treated for 8-10 weeks unless culled due to tumour volume reaching 15 x 15 mm (1768 mm^3). End of study plasma PSA levels were measured by ELISA. Bioluminescence images were obtained weekly using the IVIS® Lumina (Perkin-Elmer). D-Luciferin, Firefly, potassium salt (150 mg/kg), (Gold Biotechnology Inc.) substrate was administered intraperitoneally prior to imaging. Images were acquired after 10 min with an image time of 60 s, medium binning, F/Stop=1. Images were quantified using the Living Image software (Perkin-Elmer).
(§1) Tumours were fixed with 10% neutral buffered formalin and stored in 70% ethanol, then paraffin-embedded and cut into 5 µm consecutive sections. Samples were deparaffinised with xylene and […] with ethanol using standard protocols, with antigens retrieved by incubating samples in citrate buffer (pH 6) at 95 °C for 20 min. Samples were then incubated with 3% H2O2 in methanol for 30 min to remove endogenous peroxidases, then blocked with 10% goat serum in PBS for 30 min. Samples were then incubated overnight at 4 °C with a range of antibodies: Ki67 (Abcam, ab15580, 1:100), vimentin (1:333), CD31 (Abcam, ab28364, 1:50) and hGIIA (1:100) (Cayman Chemical, Ann Arbour, MI). TUNEL assay (Abcam) was also used to identify apoptosis. Samples were then washed, stained with Rabbit IHC secondary antibody (1:100) (Dako, Glostrup, Denmark) and counterstained with Gill's haematoxylin (1:5) (Dako). Samples were imaged using an M8 digital microscope (PreciPoint GmbH, Freising, Germany) and DAB staining was scored in a blind manner using ImageJ as described previously.

[5] = test system: LNCaP-luc xenograft tumours in castrated mice; assay: Castrate-resistant model of PCa; type: in vivo, BALB/c nu/nu mice; details: cF 2 mg/kg po daily; p = 0.0419
Text: Mice (BALB/c nu/nu) carrying LNCaP-luc xenograft tumours ( > 65.5 mm^3) were surgically castrated 2.0 - 6.6 weeks post-tumour establishment. Treatment was commenced five weeks post-castration and the study terminated 10 weeks post-treatment commencement.

[6] = test system: PC-3M-luc xenograft tumours; assay: Androgen-receptor independent xenograft model; type: in vivo, BALB/c nu/nu mice
Experimental: Mice (BALB/c nu/nu) carrying luciferase-tagged PC-3M cells (PC-3M-luc) were each injected sc with 1 × 10^6 cells suspended in RPMI culture medium. […] Tumour volume and animal weights were measured twice weekly.
as §1

[7] = test system: hGIIA; details: cited from earlier work
[8] = test system: fibroblast-like synoviocytes derived from patients with rheumatoid arthritis; details: cited from earlier work
[9] = test system: castrate-resistant PCa; parameters: method as in PMID 15470213; details: cited from earlier work
[10] = cited from earlier work

T1 sequence (P08670 269-407 limits assumed): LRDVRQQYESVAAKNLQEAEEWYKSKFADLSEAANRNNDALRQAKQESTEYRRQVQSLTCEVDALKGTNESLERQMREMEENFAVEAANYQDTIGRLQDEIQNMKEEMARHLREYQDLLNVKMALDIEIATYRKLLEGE

## CCc1c(CC(N)=O)c2cc(OCCCP(=O)(O)O)ccc2n1Cc1ccccc1 [LY311727]
[1]
  inhibition of the hGIIA/vimentin interaction: did not inhibit

## CC(C)C[C@@H]1NC(=O)[C@H](Cc2ccccc2)NC(=O)[C@H](CCCNC(=N)N)NC(=O)[C@H](Cc2ccc(O)cc2)NC(=O)[C@H](CO)NC1=O [cF, cyclo-(Phe-Leu Ser-Tyr-Arg)] (cyclo(FLSYR))
[2]; 5 mg/kg
  liver and kidney concentrations relative to c2: ~ 10 fold
[2]; 5 mg/kg, sc or po
  plasma concentration relative to c2: ~ 10 fold
[2]; sc and po administration
  oral bioavailability (in words): orally bioavailable
[2]; tritiated peptide 5 mg/kg, po vs sc, at 16 hours
  oral bioavailability relative to sc delivery (AUC analysis): ~20%
[3]; 10 mg/kg po thrice weekly
  serum creatinine, aspartate aminotransferase, alanine aminotransferase, creatine kinase levels: no significant changes
[3]; 10 mg/kg thrice weekly for 10 weeks
  damage to organs: no observable damage to organs
[3]; max dosages of 10 mg/kg thrice weekly for 10 weeks
  gross toxicity: No gross toxicity
[4]; ten weeks, p = 0.0229
  tumour volume: significant suppression
[4]; p = 0.0158
  PSA levels: significantly reduced
[4]; p = 0.0235
  tumour weight: significant suppression
[4]; p = 0.0284
  luciferase signal: reduced
[5]
  relative tumour volume from time 0 at 10 weeks: significantly reduced
[6]; cF
  increase of TUNEL signal: not seen
  proliferative marker Ki67 relative to control: significant increase
[6]; cF 5 mg/kg daily po, p < 0.05
  growth of tumours relative to vehicle controls: significantly slowed the growth of tumours
[6]; cF daily
  animals surviving until study termination at 6 months: 13%
[7]
  potency in the inhibition of hGIIA catalytic activity, less than other hGIIA inhibitors: ~ 1000 fold
[8]
  synthesis of exogenous hGIIA-mediated prostaglandin (PG): suppress

## CC(=O)O[C@@]12CO[C@@H]1C[C@H](O)[C@@]1(C)C(=O)[C@H](O)C3=C(C)[C@@H](OC(=O)[C@H](O)[C@@H](NC(=O)OC(C)(C)C)c4ccccc4)C[C@@](O)([C@@H](OC(=O)c4ccccc4)[C@H]21)C3(C)C [docetaxel]
[9]
  tumour response: 12%

## CCc1c(C(=O)C(N)=O)c2c(OCC(=O)O)cccc2n1Cc1ccccc1 [varespladib]
[10]
  patients with ALT raised three-fold over the normal range, varespladib vs placebo: 6.3 fold

## CC1=C(CO)C(=O)O[C@@H]([C@@H](C)[C@H]2CC[C@H]3[C@@H]4C[C@H]5O[C@]56[C@@H](O)C=CC(=O)[C@]6(C)[C@H]4CC[C@]23C)C1 [withaferin A]
[1]
  inhibition of the hGIIA/vimentin interaction: did not inhibit

Source: article PMC12876990, “Targeting secreted PLA2 interactions with EGFR and vimentin to arrest prostate tumour growth” (Cell Death & Disease, 2025)
